Source: patent US11596639B2, “Substituted indole Mcl-1 inhibitors” (Vanderbilt University, priority 2016, dated 2023)
Where two headings read alike, the source gives them in different places.

Experiments:
Mcl-1 = Mcl-1 (Homo sapiens (Human), UniProt Q07820); experiment: TR-FRET binding assay, FITC-Bak peptide and MBP-tagged Mcl-1; settings: read-out: Ki for Inhibition of Mcl-1 by TR-FRET assay
Experimental: Compounds are diluted in DMSO in a 16-point, semilog serial dilution scheme. […] The plate was mixed and incubated for 3 hours at room temperature. […] TR-FRET signal is plotted and IC50 and Ki values are calculated in the same manner as the fluorescence polarization anisotropy based competition assays.

[1] = system: H929 human cancer cell lines; experiment: Cellular viability / proliferation (Cell TiterGlo, 72 h); format: cell-based
Procedure, shortened: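 1,000 cells/well, 10% FBS medium; compound added at 24 h, 2-fold dilutions from 50 μM top, DMSO <1% final. 72 h exposure, CellTiterGlo 30 min RT dark, luminescence read. IC50 by 4-parameter fit.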

[2] = Homo sapiens, NCI-H929, 72 h, read-out: GI50 on cellular proliferation of H929 human cancer cell lines, H929 cells, 72 h, Cell TiterGlo, 10% FBS

Mcl-1, sequence (Q07820 172-327): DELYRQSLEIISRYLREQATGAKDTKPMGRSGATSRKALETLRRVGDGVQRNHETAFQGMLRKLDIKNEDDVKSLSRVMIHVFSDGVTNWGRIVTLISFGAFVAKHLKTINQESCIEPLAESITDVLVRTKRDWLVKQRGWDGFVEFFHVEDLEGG

SMILES | Ki (Mcl-1) [nM] | GI50 [1, 2] [nM] | GI50 ([1]; read-out: GI50 on cellular proliferation of H929 human cancer cell lines, H929 cells, 72 h, Cell TiterGlo, 10% FBS) [nM]
Cc1cc(OCCCc2c3n(c4c(-c5c(C)nn(C)c5C)c(Cl)ccc24)[C@H](C)CN(c2cc(C(=O)N4CCOCC4)cc4cc(C(=O)O)n(C)c24)C3=O)cc(C)c1Cl [Example 591, (R)-7-(7-chloro-10-(3-(4-chloro-3,5-dimethylphenoxy)propyl)-4-methyl-1-oxo-6-(1,3,5-trimethyl-1H-pyrazol-4-yl)-3,4-dihydropyrazino[1,2-a]indol-2(1H)-yl)-1-methyl-5-(morpholine-4-carbonyl)-1H-indole-2-carboxylic acid] | < 0.2 | 2800 | –
COCCn1c(C(=O)O)cc2cc(OC)cc(N3C[C@@H](C)n4c(c(CCCOc5cc(C)c(Cl)c(C)c5)c5ccc(Cl)c(-c6c(C)ncnc6C)c54)C3=O)c21 [Example 660, (R)-7-(7-chloro-10-(3-(4-chloro-3,5-dimethylphenoxy)propyl)-6-(4,6-dimethylpyrimidin-5-yl)-4-methyl-1-oxo-3,4-dihydropyrazino[1,2-a]indol-2(1H)-yl)-5-methoxy-1-(2-methoxyethyl)-1H-indole-2-carboxylic acid] | < 0.2 | 330 | –
Cc1cc(OCCCc2c3n(c4c(-c5c(C)nn(C)c5C)c(Cl)ccc24)[C@H](C)CN(c2cc(N(C)Cc4ccccn4)cc4c(C(=O)O)cn(C)c24)C3=O)cc(C)c1Cl [Example 564, (R)-7-(7-chloro-10-(3-(4-chloro-3,5-dimethylphenoxy)propyl)-4-methyl-1-oxo-6-(1,3,5-trimethyl-1H-pyrazol-4-yl)-3,4-dihydropyrazino[1,2-a]indol-2(1H)-yl)-1-methyl-5-(methyl(pyridin-2-ylmethyl)amino)-1H-indole-3-carboxylic acid] | 0.46 | 590 | –
COCCOc1cc(N2C[C@@H](C)n3c(c(CCCOc4cc(C)c(Cl)c(C)c4)c4ccc(Cl)c(-c5c(C)nn(C)c5C)c43)C2=O)c2c(c1)cc(C(=O)O)n2Cc1cccc(C)n1 [Example 540, (R)-7-(7-Chloro-10-(3-(4-chloro-3,5-dimethylphenoxy)propyl)-4-methyl-1-oxo-6-(1,3,5-trimethyl-1H-pyrazol-4-yl)-3,4-dihydropyrazino[1,2-a]indol-2(1H)-yl)-5-(2-methoxyethoxy)-1-((6-methylpyridin-2-yl)methyl)-1H-indole-2-carboxylic acid] | < 0.2 | < 200 | –
COCCn1cnc(-c2ccc3c(c2)c(N2C[C@@H](C)n4c(c(CCCOc5cc(C)c(Cl)c(C)c5)c5ccc(Cl)c(-c6c(C)nc(CN7CCN(C)C(=O)C7)nc6C)c54)C2=O)cn3CCN2CCOCC2)n1 [Example 722, (R)-7-Chloro-10-(3-(4-chloro-3,5-dimethylphenoxy)propyl)-6-(4,6-dimethyl-2-((4-methyl-3-oxopiperazin-1-yl)methyl)pyrimidin-5-yl)-2-(5-(1-(2-methoxyethyl)-1H-1,2,4-triazol-3-yl)-1-(2-morpholinoethyl)-1H-indol-3-yl)-4-methyl-3,4-dihydropyrazino[1,2-a]indol-1(2H)-one] | 3.1 | < 200 | –
Cc1cc(OCCCc2c3n(c4c(-c5c(C)nn(C)c5C)c(Cl)ccc24)[C@H](C)CN(c2cn(CC(=O)N(C)C)c4ccc(-c5ncn(Cc6ccccn6)n5)cc24)C3=O)cc(C)c1Cl [Example 638, (R)-2-(3-(7-Chloro-10-(3-(4-chloro-3,5-dimethylphenoxy)propyl)-4-methyl-1-oxo-6-(1,3,5-trimethyl-1H-pyrazol-4-yl)-3,4-dihydropyrazino[1,2-a]indol-2(1H)-yl)-5-(1-(pyridin-2-ylmethyl)-1H-1,2,4-triazol-3-yl)-1H-indol-1-yl)-N,N-dimethylacetamide] | 1.7 | 600 | –
Cc1cccc(Cn2cc(C(=O)O)c3cccc(N4C[C@@H](C)n5c(c(CCCOc6cc(C)c(Cl)c(C)c6)c6ccc(Cl)c(-c7c(C)nn(C)c7C)c65)C4=O)c32)n1 (single isomer, unassigned) [Example 494] | 0.3 | – | 450
